Results filed as inconclusive are left out. The source made the active and inactive calls. The rule behind the calls is not given here.

Here are results for 39 molecules from PubChem BioAssay AID488836 (Broad Institute, 2010).

One test deals with C. albicans CaCi-2 growth with fluconazole, Alamar Blue, 48 h. As to the kind of experiment: PubChem AID 488836.
Conditions: not given
For `COC(=O)Cn1nc(-c2ccccc2)c2ccccc21`, the AC50 (in general, the concentration giving half of the maximal activity seen) was 1260 nM.
The same measure, in the same setting: the result for `COc1ccc(NC(=O)Cn2c3ccccc3c3nc4n(c(=O)c32)CCS4)cc1` reads 4100 nM; that for `Cc1ccc(C(=O)N2CCN(c3ccnc4cc(Cl)ccc34)CC2)cc1`, 2330 nM; that for `O=C(c1csc2ccccc12)N1CCN(c2ccnc3cc(Cl)ccc23)CC1`, 1680 nM.
Still for that read-out and setting: the result for `CC1CCN(C(=O)Cn2c3ccccc3c3nc4n(c(=O)c32)CCCS4)CC1` reads > 6000 nM (inactive).
Same read-out and setting: the result for `CC1CCN(C(=O)Cn2c3ccccc3c3nc4n(c(=O)c32)CCS4)CC1` reads 2940 nM; that for `O=C(c1cccs1)N1CCN(c2ccnc3cc(Cl)ccc23)CC1`, 2720 nM.
Regarding `O=c1c2[nH]c3ccc(F)cc3c2nc2n1CCS2`, the AC50 was 4080 nM.
Consider `O=C(Nc1ccc(C(F)(F)F)cc1)N1CCN(c2ccnc3cc(Cl)ccc23)CC1`, for which the AC50 was 1810 nM.
Still for that read-out and setting: the result for `O=C(c1ccccc1)N1CCN(c2ccnc3cc(Cl)ccc23)CC1` reads 3350 nM; that for `CCN(CC)C(=O)Cn1c2ccccc2c2nc3n(c(=O)c21)CCS3`, 2280 nM; that for `CC1CCN(C(=O)Cn2c3ccc(F)cc3c3nc4n(c(=O)c32)CCCS4)CC1`, 3540 nM.
On to `COC(=O)Cn1nc(-c2ccc(C)cc2)c2ccccc21`, for which the AC50 was 103 nM.
Regarding `O=C(Cn1c2ccccc2c2nc3n(c(=O)c21)CCS3)N1CCCC1`, the AC50 was 2300 nM.
Turning to `O=C(c1ccc(Cl)c(Cl)c1)N1CCN(c2ccnc3cc(Cl)ccc23)CC1`, the AC50 is 1020 nM.
The same measure, in the same setting: the result for `O=C(c1ccc(Cl)cc1)N1CCN(c2ccc(Cl)cc2)CC1` reads 6130 nM.
As to `O=C(c1ccc(Cl)cc1)N1CCN(c2ccnc3cc(Cl)ccc23)CC1`, the AC50 was 651 nM.

System in another test: not listed separately
As to the kind of experiment: PubChem AID 488836. The following applies: C. albicans CaCi-2 growth with fluconazole, Alamar Blue, 48 h; at 0.6 µM (top of the series).
As for `COc1ccc2c(c1)c1nc3n(c(=O)c1n2CC(=O)N1CCC(C)CC1)CCS3`, the activity change, negative = inhibition was 13.2% (inactive).

The same test, now with this note: C. albicans CaCi-2 (fluconazole-resistant clinical isolate) growth with fluconazole, Alamar Blue, 48 h; at 6 µM (top of the series).
For `CCOC(=O)c1nn(Cc2ccc(Cl)cc2)c2ccccc12`, the activity change, negative = inhibition is -6.26% (inactive).
Still for that read-out and setting: the result for `O=C(Cn1c2ccccc2c2nc3n(c(=O)c21)CCCS3)c1ccc(F)cc1` reads -14.2% (inactive); that for `COc1ccc(OC)c2c(C)cc(N3CCN(C(=O)c4ccc(Cl)cc4)CC3)nc12`, -2.61% (inactive).
The same measure, in the same setting: the result for `O=S(=O)(c1ccc(Cl)cc1)N1CCN(c2ccnc3cc(Cl)ccc23)CC1` reads -15.5% (inactive); that for `O=C(O)c1nn(Cc2ccc(Cl)cc2)c2ccccc12`, -11.2% (inactive).
Still for that read-out and setting: the value for `O=C(Cn1nc(C(=O)N2CCCCC2)c2ccccc21)N1CCOCC1` was -5.52% (inactive); that for `O=C(Cn1nc(-c2ccccc2)c2cc(Cl)ccc21)N1CCOCC1` was -5.03% (inactive).
For `CCCNC(=O)Cn1nc(-c2ccccc2)c2ccccc21`, the activity change, negative = inhibition is 12.1% (inactive).
Same read-out and setting: the result for `COC(=O)Cn1nc(C)c2ccccc21` reads -0.315% (inactive); that for `O=C(Cn1nc(-c2ccccc2)c2ccccc21)NCc1ccc(Cl)cc1`, -18.4% (inactive).
On the same count and under the same terms, the value for `Cc1nn(S(C)(=O)=O)c2ccccc12` was -21% (inactive); that for `CCOC(=O)c1c2ccccc2nn1Cc1ccc(Cl)cc1` was -7.34% (inactive).
On the same count and under the same terms, the result for `O=C(Cn1c2ccccc2c2nc3n(c(=O)c21)CCS3)NCCc1ccc(Cl)cc1` reads -13.4% (inactive); that for `O=C(O)c1c2ccccc2nn1Cc1ccc(Cl)cc1`, -8.46% (inactive); that for `CCCNC(=O)Cn1nc(-c2ccccc2)c2cc(Cl)ccc21`, 38.1% (inactive).
`COc1ccc2c(c1)c1nc3n(c(=O)c1n2CC(=O)N1CCC(Cc2ccccc2)CC1)CCS3`: the activity change, negative = inhibition is -7.32% (inactive).
Still for that read-out and setting: the value for `O=C(Cn1nc(-c2ccccc2)c2ccccc21)N1CCc2ccccc2C1` was -26.7% (inactive).
Still for that read-out and setting: the result for `O=c1c2[nH]c3ccccc3c2nc2n1CCS2` reads -39.9% (inactive).
Same read-out and setting: the result for `c1ccc(-c2n[nH]c3ccccc23)cc1` reads 4.54% (inactive); that for `COC(=O)Cn1nc(-c2ccc(Cl)cc2)c2ccccc21`, -11% (inactive); that for `O=C(c1ccc(Cl)cc1)N1CCN(c2cc(C(F)(F)F)nc3ccccc23)CC1`, -20% (inactive).
